Reference: the supplement of paper PMC10627819

What was measured:
[1] = test system: S. pneumoniae D39V; test: fitness (endpoint OD595 vs no drug) (fraction); higher = more growth
In short: (§1)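 Fitness is computed from the optical density at which cultures reach stationary phase, divided by the robust mean of no-drug control wells. Any value above 1 is set to 1. Cultures started at OD595 0.01 in 384-well plates with TSB, LB Lennox or CY at 37 °C, and OD595 was read every 30 min for 14 h against a first-reading background.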

[2] = test system: B. subtilis 168; test: as above
In short: as §1
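Further: OD595 on entry to stationary phase over no-drug wells; at most 1.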

CC(=O)Oc1ccccc1C(=O)O [Acetylsalicylic acid] + CN(C)c1cc(NC(=O)CNC(C)(C)C)c(O)c2c1C[C@H]1C[C@H]3[C@H](N(C)C)C(O)=C(C(N)=O)C(=O)[C@@]3(O)C(O)=C1C2=O [Tigecycline]
fitness, [1]
Conditions | partner 0.325 µg/mL | partner 0.65 µg/mL | partner 1.3 µg/mL | partner 2.6 µg/mL
first compound 250 µg/mL | 0.934 | 0.968 | 1 | 0.932
first compound 500 µg/mL | 0.904 | 0.985 | 0.949 | 0.95
first compound 1000 µg/mL | 0.797 | 0.763 | 0.803 | 0.718

CC(=O)Oc1ccccc1C(=O)O [Acetylsalicylic acid] + O=C(O)c1cn(C2CC2)c2cc(N3CCNCC3)c(F)cc2c1=O [Ciprofloxacin]
fitness, [1]
Conditions | first compound 250 µg/mL | first compound 500 µg/mL | first compound 1000 µg/mL
partner 0.125 µg/mL | 0.963 | 0.907 | 0.863
partner 0.25 µg/mL | 0.883 | 0.904 | 0.833
partner 0.5 µg/mL | 0.835 | 0.835 | 0.719

CC(=O)Oc1ccccc1C(=O)O [Acetylsalicylic acid] + CN[C@@H]1[C@H](O[C@H]2[C@H](O[C@H]3[C@H](O)[C@@H](O)[C@H](N=C(N)N)[C@@H](O)[C@@H]3N=C(N)N)O[C@@H](C)[C@]2(O)C=O)O[C@@H](CO)[C@H](O)[C@H]1O [Streptomycin]
fitness, [1]
Conditions | first compound 250 µg/mL | first compound 500 µg/mL | first compound 1000 µg/mL
partner 2 µg/mL | 0.954 | 0.928 | 0.806
partner 4 µg/mL | 0.977 | 0.892 | –
partner 8 µg/mL | 0.929 | 0.869 | –

[1], partner 16 µg/mL, one replicate
Conditions | fitness
first compound 250 µg/mL | 0.772
first compound 500 µg/mL | 0.605
first compound 1000 µg/mL | 0.159

CC(=O)Oc1ccccc1C(=O)O [Acetylsalicylic acid] + C/C(=C\C(=O)OCCCCCCCCC(=O)O)C[C@@H]1OC[C@H](C[C@@H]2O[C@H]2[C@@H](C)[C@H](C)O)[C@@H](O)[C@H]1O [Pseudomonic acid]
fitness, [1]
Conditions | first compound 250 µg/mL | first compound 500 µg/mL | first compound 1000 µg/mL
partner 0.03 µg/mL | 0.933 | 0.9 | 0.825
partner 0.06 µg/mL | 0.822 | 0.723 | –
partner 0.12 µg/mL | 0.542 | 0.488 | 0.383

CC(=O)Oc1ccccc1C(=O)O [Acetylsalicylic acid] + CN(C)C(=O)C(CCN1CCC(O)(c2ccc(Cl)cc2)CC1)(c1ccccc1)c1ccccc1 [Loperamide]
fitness, [1]
Conditions | partner 17.14 µg/mL | partner 20 µg/mL | partner 34.28 µg/mL | partner 40 µg/mL | partner 80 µg/mL
first compound 250 µg/mL | 0.987 | 0.989 | 0.945 | 0.982 | ≥ 1
first compound 500 µg/mL | 0.972 | ≥ 1 | 0.981 | ≥ 1 | ≥ 1
first compound 1000 µg/mL | 0.859 | 0.987 | 0.879 | 0.967 | 0.937

[1], partner 68.57 µg/mL, one replicate
Conditions | fitness
first compound 250 µg/mL | 0.931
first compound 500 µg/mL | 0.927
first compound 1000 µg/mL | ≥ 1

CC(=O)Oc1ccccc1C(=O)O [Acetylsalicylic acid] + C[C@H]1c2cccc(O)c2C(=O)C2=C(O)[C@]3(O)C(=O)C(C(N)=O)=C(O)[C@@H](N(C)C)[C@@H]3[C@@H](O)[C@@H]21 [Doxycycline]
fitness, [1], one replicate
Conditions | first compound 250 µg/mL | first compound 500 µg/mL | first compound 1000 µg/mL
partner 0.003875 µg/mL | ≥ 1 | ≥ 1 | 0.95
partner 0.00775 µg/mL | 0.998 | ≥ 1 | ≥ 1

fitness, [1]
Conditions | first compound 250 µg/mL | first compound 500 µg/mL | first compound 1000 µg/mL
partner 0.0155 µg/mL | 0.907 | 0.941 | 0.842
partner 0.031 µg/mL | 0.825 | 0.822 | 0.668

C[C@H]1c2cccc(O)c2C(=O)C2=C(O)[C@]3(O)C(=O)C(C(N)=O)=C(O)[C@@H](N(C)C)[C@@H]3[C@@H](O)[C@@H]21 [Doxycycline] + CO/N=C(\C(=O)N[C@@H]1C(=O)N2C(C(=O)[O-])=C(C[N+]3(C)CCCC3)CS[C@H]12)c1csc(N)n1 [Cefepime]
fitness, [1], one replicate
Conditions | first compound 0.003875 µg/mL | first compound 0.00775 µg/mL | first compound 0.031 µg/mL | first compound 0.062 µg/mL
partner 0.0078 µg/mL | ≥ 1 | ≥ 1 | 0.936 | 0.84
partner 0.0155 µg/mL | ≥ 1 | 0.991 | 0.888 | 0.779
partner 0.031 µg/mL | 0.637 | 0.783 | 0.834 | 0.684

fitness, [1]
Conditions | partner 0.007 µg/mL | partner 0.0078 µg/mL | partner 0.014 µg/mL | partner 0.0155 µg/mL | partner 0.028 µg/mL | partner 0.031 µg/mL
first compound 0.0155 µg/mL | 0.944 | ≥ 1 | 0.934 | 0.974 | 0.858 | 0.882
first compound 0.031 µg/mL | 0.951 | – | 0.938 | – | 0.88 | –

CN(C)[C@@H]1C(O)=C(C(N)=O)C(=O)[C@@]2(O)C(O)=C3C(=O)c4c(O)ccc(Cl)c4[C@@](C)(O)[C@H]3C[C@@H]12 [Chlortetracycline] + CO[C@@H]1[C@@H](OC(N)=O)[C@@H](O)[C@H](Oc2ccc3c(O)c(NC(=O)c4ccc(O)c(CC=C(C)C)c4)c(=O)oc3c2C)OC1(C)C [Novobiocin]
fitness, [2]
Conditions | first compound 0.0475 µg/mL | first compound 0.095 µg/mL | first compound 0.19 µg/mL
partner 0.0125 µg/mL | 0.909 | 0.765 | 0.469
partner 0.025 µg/mL | 0.623 | 0.653 | 0.336
partner 0.05 µg/mL | 0.986 | 0.844 | 0.398

fitness, [2], one replicate
Conditions | partner 0.1 µg/mL | partner 0.125 µg/mL | partner 0.2 µg/mL | partner 0.25 µg/mL | partner 0.5 µg/mL
first compound 0.0475 µg/mL | 0.948 | 0.928 | 0.934 | 0.966 | 0.648
first compound 0.095 µg/mL | 0.863 | 0.839 | 0.936 | 0.811 | 0.577
first compound 0.19 µg/mL | 0.529 | 0.548 | 0.52 | 0.537 | 0.323

CC(=O)Oc1ccccc1C(=O)O [Acetylsalicylic acid] + CC[C@H]1OC(=O)[C@H](C)[C@@H](O[C@H]2C[C@@](C)(OC)[C@@H](O)[C@H](C)O2)[C@H](C)[C@@H](O[C@@H]2O[C@H](C)C[C@H](N(C)C)[C@H]2O)[C@](C)(OC)C[C@@H](C)C(=O)[C@H](C)[C@@H](O)[C@]1(C)O [Clarithromycin]
fitness, [1], one replicate
Conditions | first compound 250 µg/mL | first compound 500 µg/mL | first compound 1000 µg/mL
partner 0.007812 µg/mL | 0.824 | 0.781 | 0.281
partner 0.01562 µg/mL | 0.783 | 0.763 | 0.193
partner 0.03125 µg/mL | 0.621 | 0.627 | 0.257

fitness, [1]
Conditions | partner 0.0625 µg/mL | partner 0.07 µg/mL | partner 0.125 µg/mL | partner 0.14 µg/mL | partner 0.25 µg/mL | partner 0.28 µg/mL
first compound 250 µg/mL | 0.642 | 0.195 | 0.369 | 0.137 | 0.133 | 0.104
first compound 500 µg/mL | 0.586 | 0.228 | 0.359 | 0.167 | 0.147 | 0.108
first compound 1000 µg/mL | 0.405 | 0.155 | 0.148 | 0.139 | 0.0751 | 0.0935

CN(C)[C@@H]1C(O)=C(C(N)=O)C(=O)[C@@]2(O)C(O)=C3C(=O)c4c(O)ccc(Cl)c4[C@@](C)(O)[C@H]3C[C@@H]12 [Chlortetracycline] + CO[C@H]1/C=C/O[C@@]2(C)Oc3c(C)c(O)c4c(O)c(c(/C=N/N5CCN(C)CC5)c(O)c4c3C2=O)NC(=O)/C(C)=C\C=C\[C@H](C)[C@H](O)[C@@H](C)[C@@H](O)[C@@H](C)[C@H](OC(C)=O)[C@@H]1C [Rifampicin]
fitness, [1], one replicate
Conditions | first compound 0.012 µg/mL | first compound 0.024 µg/mL | first compound 0.048 µg/mL
partner 0.025 µg/mL | 0.844 | 0.793 | 0.642
partner 0.2 µg/mL | 0 | 0 | 0

fitness, [1]
Conditions | first compound 0.012 µg/mL | first compound 0.024 µg/mL | first compound 0.048 µg/mL | first compound 0.375 µg/mL | first compound 0.75 µg/mL | first compound 1.5 µg/mL
partner 0.025 µg/mL | – | – | – | 0.0932 | 0.0627 | 0.0877
partner 0.05 µg/mL | 0.729 | 0.687 | 0.46 | 0.077 | 0.103 | 0.113
partner 0.1 µg/mL | 0.472 | 0.429 | 0.272 | 0.102 | 0.102 | 0.14

CC(=O)Oc1ccccc1C(=O)O [Acetylsalicylic acid] + C[C@@H](O)[C@H]1C(=O)N2C(C(=O)O)=C(SCCNC=N)C[C@H]12 [Imipenem]
fitness, [1]
Conditions | partner 0.005 µg/mL | partner 0.0065 µg/mL | partner 0.01 µg/mL | partner 0.013 µg/mL | partner 0.02 µg/mL | partner 0.026 µg/mL
first compound 250 µg/mL | 0.948 | 0.983 | 0.898 | 0.953 | 0.912 | 0.914
first compound 500 µg/mL | 0.956 | 0.969 | 0.954 | 0.993 | 0.955 | 0.912
first compound 1000 µg/mL | 0.856 | 0.868 | 0.85 | 0.943 | 0.813 | 0.907

CC(=O)Oc1ccccc1C(=O)O [Acetylsalicylic acid] + CC(C1CCC(C(O1)OC2C(CC(C(C2O)OC3C(C(C(CO3)(C)O)NC)O)N)N)N)NC [Gentamicin]
fitness, [1], main component drawn
Conditions | partner 2 µg/mL | partner 4 µg/mL | partner 8 µg/mL
first compound 250 µg/mL | 0.955 | 0.967 | 0.93
first compound 500 µg/mL | 0.972 | 0.947 | 0.917

CN(C)[C@@H]1C(O)=C(C(N)=O)C(=O)[C@@]2(O)C(O)=C3C(=O)c4c(O)ccc(Cl)c4[C@@](C)(O)[C@H]3C[C@@H]12 [Chlortetracycline] + O=C1CN(/N=C/c2ccc([N+](=O)[O-])o2)C(=O)N1 [Nitrofurantoin]
fitness, [1]
Conditions | first compound 0.012 µg/mL | first compound 0.024 µg/mL | first compound 0.048 µg/mL | first compound 0.375 µg/mL | first compound 0.75 µg/mL | first compound 1.5 µg/mL
partner 1.285 µg/mL | 0.958 | 0.896 | 0.842 | – | – | –
partner 2 µg/mL | – | – | – | 0.034 | 0.0485 | 0.0311
partner 2.57 µg/mL | 0.96 | 0.951 | 0.836 | – | – | –
partner 4 µg/mL | – | – | – | 0.0275 | 0.0381 | 0.0293
partner 8 µg/mL | – | – | – | 0.0328 | 0.0386 | 0.0233

[1], partner 5.14 µg/mL, one replicate
Conditions | fitness
first compound 0.012 µg/mL | 0.862
first compound 0.024 µg/mL | 0.898
first compound 0.048 µg/mL | 0.762
